# In US20110130286A1, “Piperazine Compounds with Herbicidal Effect” (BASF SE, priority 2008, published 2011):
# Columns and labels:
# AVEFA = assay: greenhouse test, post-emergence treatment; type: in vivo, Avena fatua; details: application rate 1.0 kg/ha, scale from 0 to 100
# Excerpt: (§1) The culture containers used were plastic flowerpots containing loamy sand with approximately 3.0% of humus as the substrate. The seeds of the test plants were sown separately for each species.
# (§2) For the post-emergence treatment, the test plants were first grown to a height of 3 to 15 cm, depending on the plant habit, and then treated with the active compounds which had been suspended or emulsified in water. For this purpose, the test plants were either sown directly and grown in the same containers, or they were first grown separately as seedlings and transplanted into the test containers a few days prior to treatment.
# (§3) Depending on the species, the plants were kept at 10-25° C. or 20-35° C. The test period extended over 2 to 4 weeks. During this time, the plants were tended, and their response to the individual treatments was evaluated.
# (§4) Evaluation was carried out using a scale from 0 to 100. 100 means no emergence of the plants, or complete destruction of at least the aerial moieties, and 0 means no damage, or normal course of growth. A good herbicidal activity is given at values of at least 70 and a very good herbicidal activity is given at values of at least 85.
# ECHCG [1] = assay: greenhouse test, post-emergence treatment; type: in vivo, Echinochloa crus-galli; details: application rate 1.0 kg/ha, scale from 0 to 100
# Excerpt: as §1, §2, §3, §4
# LOLMU = assay: greenhouse test, post-emergence treatment; type: in vivo, Lolium multiflorum; details: application rate 1.0 kg/ha, scale from 0 to 100
# Excerpt: as §1, §2, §3, §4
# ECHCG [2] = assay: greenhouse test, pre-emergence treatment; type: in vivo, Echinochloa crus-galli
# Excerpt: as §1
# (§5) For the pre-emergence treatment, the active compounds, which had been suspended or emulsified in water, were applied directly after sowing by means of finely distributing nozzles. The containers were irrigated gently to promote germination and growth and subsequently covered with transparent plastic hoods until the plants had rooted. This cover caused uniform germination of the test plants, unless this has been impaired by the active compounds.
# as §3, §4
# (§6) The respective stated components A and B were formulated as a 5% by weight strength or 10% by weight strength emulsion concentrate, or a commercial formulation of component B was used, and, with addition of the amount of solvent system, introduced into the spray liquor used for applying the active compound. In the examples, the solvent used was water.
# (§7) The test period extended over 20 or 21 days. During this time, the plants were tended, and their reactions to the treatments with active compound were monitored.
# (§8) In the examples below, using the method of S. R. Colby (1967) “Calculating synergistic and antagonistic responses of herbicide combinations”, Weeds 15, p. 22ff., the value E, which is expected if the activity of the individual active compounds is only additive, was calculated.
# (§9) What was evaluated was the damage by the chemical compositions using a scale of from 0 to 100%, in comparison to the untreated control plants. 0 means no damage, and 100 means complete destruction of the plants.
# ALOMY [3] = assay: greenhouse test, pre-emergence treatment; type: in vivo, Alopecurus agrestis; details: for herbicidal activity against ALOMY: application rate 0.125 kg/ha, comparative test
# Excerpt: as §1, §5, §3, §4, §6, §7, §8, §9
# APESV [4] = assay: greenhouse test, pre-emergence treatment; type: in vivo, Apera spica-venti; details: for herbicidal activity against APESV: application rate 0.125 kg/ha, comparative test
# Excerpt: as §1, §5, §3, §4, §6, §7, §8, §9
# BROIN [5] = assay: greenhouse test, post-emergence treatment; type: in vivo, Bromus inermis
# Excerpt: as §1, §2
# (§10) Depending on the species, the plants were kept at 10-25° C. or 20-35° C. […] During this time, the plants were tended, and their response to the individual treatments was evaluated. […]
# as §7, §8
# (§11) What was evaluated was the damage by the chemical compositions using a scale of from 0 to 100%, in comparison to the untreated control plants. […]
# CHEAL = assay: greenhouse test, post-emergence treatment; type: in vivo, Chenopodium album
# Excerpt: as §1, §2, §10, §7, §8, §11
# BROIN [6] = assay: greenhouse test, pre-emergence treatment; type: in vivo, Bromus inermis
# Excerpt: as §1, §5, §3, §6, §7, §8, §9
# POLCO [7] = assay: greenhouse test, pre-emergence treatment; type: in vivo, Fallopia convolvulus
# Excerpt: as §1, §5, §10, §7, §8, §11
# BRAPL = assay: greenhouse test, pre-emergence treatment; type: in vivo, Brachiaria plantaginea
# Excerpt: as §1, §5, §10, §7, §8, §11
# ABUTH = assay: greenhouse test, pre-emergence treatment; type: in vivo, Abutilon theophrasti
# Excerpt: as §1, §5, §10, §7, §8, §11
# VIOAR = assay: greenhouse test, pre-emergence treatment; type: in vivo, Viola arvensis
# Excerpt: as §1, §5, §10, §7, §8, §11
# SETVI = assay: greenhouse test, pre-emergence treatment; type: in vivo, Setaria viridis
# Excerpt: as §1, §5, §10, §7, §8, §11
# LAMPU = assay: greenhouse test, pre-emergence treatment; type: in vivo, Lamium purpureum
# Excerpt: as §1, §5, §10, §7, §8, §11
# ALOMY [8] = assay: greenhouse test, post-emergence treatment; type: in vivo, Alopecurus agrestis
# Excerpt: as §1, §2, §10, §7, §8, §11
# APESV [9] = assay: greenhouse test, post-emergence treatment; type: in vivo, Apera spica-venti
# Excerpt: as §1, §2, §10, §7, §8, §11
# POLCO [10] = assay: greenhouse test, post-emergence treatment; type: in vivo, Fallopia convolvulus
# Excerpt: as §1, §2, §10, §7, §8, §11
# [11] = application rate 0.125 kg/ha, comparative test
structure (smiles),measurement,setting,value
CN1C(=O)C(C)(Cc2ccccc2)N(C)C(=O)C1=Cc1cccnc1Br (racemic) [I-1],herbicidal activity against AVEFA,AVEFA,very good (a very good herbicidal activity is given at values of at least 85)
same,herbicidal activity against ECHCG,ECHCG [1],very good (a very good herbicidal activity is given at values of at least 85)
same,herbicidal activity against LOLMU,LOLMU,very good (a very good herbicidal activity is given at values of at least 85)
CC(C)CN1C(=O)C(=Cc2cccnc2Br)N(C)C(=O)C1(C)Cc1ccccc1 (racemic) [I-463],herbicidal activity against ECHCG,"ECHCG [2]; application rate 0.5 kg/ha, scale from 0 to 100",good (A good herbicidal activity is given at values of at least 70)
"CN1C(=O)C(Cc2ccccc2)N(C)C(=O)/C1=C/c1cccnc1C#N (stereo not drawn) [Ex. 14, reference compound]",herbicidal activity against ALOMY,ALOMY [3],no herbicidal activity
same,herbicidal activity against APESV,APESV [4],90%
same,herbicidal activity against ECHCG,ECHCG [2]; [11],no herbicidal activity
"CN1C(=O)C(C)(Cc2ccccc2)N(C)C(=O)C1=Cc1cccnc1Cl (stereo not drawn) [Example 3, 3-benzyl-6-[1-(2-chloropyridin-3-yl)methylidene]-1,3,4-tri-methylpiperazine-2,5-dione]",melting point,,146 °C
"CN1C(=O)C(C)(Cc2ccccc2)N(C)C(=O)C1=Cc1cccnc1C#N (stereo not drawn) [Example 4, 3-(5-benzyl-1,4,5-trimethyl-3,6-dioxopiperazin-2-ylidene-methyl)pyridine-2-carbonitrile]",melting point,,163 °C
CN1C(=O)C(C)(Cc2ccccc2)N(C)C(=O)/C1=C/c1cccnc1C#N (stereo not drawn) [I-2],Herbicidal activity in % after 20 days against ALOMY,ALOMY [3]; 62.5 g/ha a.s.,65%
same,herbicidal activity against ALOMY,ALOMY [3],75%
same,Herbicidal activity in % after 20 days against APESV,APESV [4]; 125 g/ha a.s.,95%
same,herbicidal activity against APESV,APESV [4],100%
same,Herbicidal activity in % after 20 days against ECHCG,ECHCG [2]; 62.5 g/ha a.s.,40%
same,herbicidal activity against ECHCG,ECHCG [2]; [11],80%
same,Herbicidal activity in % after 20 days against BROIN,BROIN [5]; 125 g/ha a.s.,45%
same,Herbicidal activity in % after 20 days against CHEAL,CHEAL; 125 g/ha a.s.,70%
same,Herbicidal activity in % after 20 days against BROIN,BROIN [6]; 62.5 g/ha a.s.,20%
same,Herbicidal activity in % after 20 days against BROIN,BROIN [6]; 125 g/ha a.s.,80%
same,Herbicidal activity in % after 20 days against POLCO,POLCO [7]; 125 g/ha a.s.,80%
same,Herbicidal activity in % after 20 days against BRAPL,BRAPL; 62.5 g/ha a.s.,65%
same,Herbicidal activity in % after 20 days against ABUTH,ABUTH; 62.5 g/ha a.s.,0%
same,Herbicidal activity in % after 20 days against VIOAR,VIOAR; 62.5 g/ha a.s.,60%
same,Herbicidal activity in % after 20 days against SETVI,SETVI; 62.5 g/ha a.s.,90%
same,Herbicidal activity in % after 20 days against LAMPU,LAMPU; 62.5 g/ha a.s.,40%
same,Herbicidal activity in % after 20 days against ALOMY,ALOMY [8]; 62.5 g/ha a.s.,45%
same,Herbicidal activity in % after 20 days against APESV,APESV [9]; 62.5 g/ha a.s.,40%
same,Herbicidal activity in % after 20 days against POLCO,POLCO [10]; 62.5 g/ha a.s.,40%
same,melting point,,163 °C
"CCC(CC)Nc1c([N+](=O)[O-])cc(C)c(C)c1[N+](=O)[O-] [pendimethalin, reference compound]",Herbicidal activity in % after 20 days against APESV,APESV [4]; 250 g/ha a.s.,95%
same,Herbicidal activity in % after 20 days against BROIN,BROIN [5]; 250 g/ha a.s.,0%
same,Herbicidal activity in % after 20 days against CHEAL,CHEAL; 250 g/ha a.s.,75%
same,Herbicidal activity in % after 20 days against BROIN,BROIN [6]; 250 g/ha a.s.,40%
same,Herbicidal activity in % after 20 days against POLCO,POLCO [7]; 250 g/ha a.s.,70%
"Cn1nc(C(F)(F)F)c(CS(=O)(=O)C2=NOC(C)(C)C2)c1OC(F)F [pyroxasulfone, reference compound]",Herbicidal activity in % after 20 days against ALOMY,ALOMY [3]; 12.5 g/ha a.s.,90%
same,Herbicidal activity in % after 20 days against BROIN,BROIN [6]; 12.5 g/ha a.s.,65%
same,Herbicidal activity in % after 20 days against SETVI,SETVI; 12.5 g/ha a.s.,90%
same,Herbicidal activity in % after 20 days against LAMPU,LAMPU; 12.5 g/ha a.s.,80%
same,Herbicidal activity in % after 20 days against ALOMY,ALOMY [8]; 12.5 g/ha a.s.,85%
same,Herbicidal activity in % after 20 days against APESV,APESV [9]; 12.5 g/ha a.s.,80%
same,Herbicidal activity in % after 20 days against POLCO,POLCO [10]; 12.5 g/ha a.s.,40%
"CC(C)N(C)S(=O)(=O)NC(=O)c1cc(-n2c(=O)cc(C(F)(F)F)n(C)c2=O)c(F)cc1Cl [saflufenacil, reference compound]",Herbicidal activity in % after 20 days against ECHCG,ECHCG [2]; 6.25 g/ha a.s.,0%
same,Herbicidal activity in % after 20 days against BRAPL,BRAPL; 6.25 g/ha a.s.,35%
same,Herbicidal activity in % after 20 days against ABUTH,ABUTH; 6.25 g/ha a.s.,90%
same,Herbicidal activity in % after 20 days against VIOAR,VIOAR; 6.25 g/ha a.s.,80%
